In PubChem BioAssay (NCI):
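1) Cells in 96-well plates. 2) Compound, 48 h, 5 concentrations. 3) Linear interpolation between surrounding doses. 4) Unreached endpoint = highest concentration. GI50 is the concentration that inhibits growth by half. The concentration for full growth arrest is given as TGI.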

Experiments:
Assay in all cases: NCI-60 cell line screen, 48 h
A498 renal = tested on: A498 renal
OVCAR-3 ovarian = tested on: OVCAR-3 ovarian
TK-10 renal = tested on: TK-10 renal
A549 NSCLC = tested on: A549 NSCLC
HS 578T breast = tested on: HS 578T breast
PC-3 prostate = tested on: PC-3 prostate
MALME-3M melanoma = tested on: MALME-3M melanoma
UACC-257 melanoma = tested on: UACC-257 melanoma
COLO 205 colon = tested on: COLO 205 colon
MOLT-4 leukemia = tested on: MOLT-4 leukemia
786-0 renal = tested on: 786-0 renal
MCF7 breast = tested on: MCF7 breast
K-562 leukemia = tested on: K-562 leukemia
SK-OV-3 ovarian = tested on: SK-OV-3 ovarian
HOP-92 NSCLC = tested on: HOP-92 NSCLC
SR leukemia = tested on: SR leukemia
BT-549 breast = tested on: BT-549 breast
T-47D breast = tested on: T-47D breast
SW-620 colon = tested on: SW-620 colon
KM12 colon = tested on: KM12 colon
HOP-62 NSCLC = tested on: HOP-62 NSCLC
MDA-MB-435 = tested on: MDA-MB-435
OVCAR-8 ovarian = tested on: OVCAR-8 ovarian
SK-MEL-2 melanoma = tested on: SK-MEL-2 melanoma
U251 CNS = tested on: U251 CNS
SNB-19 CNS = tested on: SNB-19 CNS
EKVX NSCLC = tested on: EKVX NSCLC
CAKI-1 renal = tested on: CAKI-1 renal
UO-31 renal = tested on: UO-31 renal
LOX IMVI melanoma = tested on: LOX IMVI melanoma
OVCAR-4 ovarian = tested on: OVCAR-4 ovarian
ACHN renal = tested on: ACHN renal
SF-539 CNS = tested on: SF-539 CNS
MDA-MB-231 breast = tested on: MDA-MB-231 breast
IGROV1 ovarian = tested on: IGROV1 ovarian
SK-MEL-5 melanoma = tested on: SK-MEL-5 melanoma
HCT-15 colon = tested on: HCT-15 colon
CCRF-CEM leukemia = tested on: CCRF-CEM leukemia
NCI-H23 lung = tested on: NCI-H23 lung
OVCAR-5 ovarian = tested on: OVCAR-5 ovarian
NCI-H226 lung = tested on: NCI-H226 lung
SN12C renal = tested on: SN12C renal
HT29 colon = tested on: HT29 colon
NCI/ADR-RES ovarian = tested on: NCI/ADR-RES ovarian
HL-60(TB) leukemia = tested on: HL-60(TB) leukemia
HCC-2998 colon = tested on: HCC-2998 colon
RXF 393 renal = tested on: RXF 393 renal
HCT-116 colon = tested on: HCT-116 colon
M14 melanoma = tested on: M14 melanoma
SK-MEL-28 melanoma = tested on: SK-MEL-28 melanoma
SNB-75 CNS = tested on: SNB-75 CNS
UACC-62 melanoma = tested on: UACC-62 melanoma
DU-145 prostate = tested on: DU-145 prostate
NCI-H522 lung = tested on: NCI-H522 lung
RPMI-8226 leukemia = tested on: RPMI-8226 leukemia
NCI-H460 lung = tested on: NCI-H460 lung
SF-268 CNS = tested on: SF-268 CNS

SMILES: COc1cc(/C=C2\CCCC3=C2N=C2SC(C)=NN2C3c2cc(OC)c(OC)c(OC)c2)cc(OC)c1OC (stereo not given)
- GI50 (A498 renal): 153 nM
- TGI (A498 renal): > 100000 nM
- GI50 (OVCAR-3 ovarian): 580 nM
- TGI (OVCAR-3 ovarian): > 100000 nM
- GI50 (TK-10 renal): > 100000 nM
- TGI (TK-10 renal): > 100000 nM
- GI50 (A549 NSCLC): > 100000 nM
- TGI (A549 NSCLC): > 100000 nM
- GI50 (HS 578T breast): > 100000 nM
- TGI (HS 578T breast): > 100000 nM
- GI50 (PC-3 prostate): > 100000 nM
- TGI (PC-3 prostate): > 100000 nM
- GI50 (MALME-3M melanoma): > 100000 nM
- TGI (MALME-3M melanoma): > 100000 nM
- GI50 (UACC-257 melanoma): > 100000 nM
- TGI (UACC-257 melanoma): > 100000 nM
- GI50 (COLO 205 colon): 429 nM
- TGI (COLO 205 colon): > 100000 nM
- GI50 (MOLT-4 leukemia): 391 nM
- TGI (MOLT-4 leukemia): > 100000 nM
- GI50 (786-0 renal): > 100000 nM
- TGI (786-0 renal): > 100000 nM
- GI50 (MCF7 breast): 319 nM
- TGI (MCF7 breast): > 100000 nM
- GI50 (K-562 leukemia): 420 nM
- TGI (K-562 leukemia): > 100000 nM
- GI50 (SK-OV-3 ovarian): > 100000 nM
- TGI (SK-OV-3 ovarian): > 100000 nM
- GI50 (HOP-92 NSCLC): > 100000 nM
- TGI (HOP-92 NSCLC): > 100000 nM
- GI50 (SR leukemia): 347 nM
- TGI (SR leukemia): > 100000 nM
- GI50 (BT-549 breast): > 100000 nM
- TGI (BT-549 breast): > 100000 nM
- GI50 (T-47D breast): > 100000 nM
- TGI (T-47D breast): > 100000 nM
- GI50 (SW-620 colon): 410 nM
- TGI (SW-620 colon): > 100000 nM
- GI50 (KM12 colon): 322 nM
- TGI (KM12 colon): > 100000 nM
- GI50 (HOP-62 NSCLC): > 100000 nM
- TGI (HOP-62 NSCLC): > 100000 nM
- GI50 (MDA-MB-435): 341 nM
- TGI (MDA-MB-435): > 100000 nM
- GI50 (OVCAR-8 ovarian): 311 nM
- TGI (OVCAR-8 ovarian): > 100000 nM
- GI50 (SK-MEL-2 melanoma): > 100000 nM
- TGI (SK-MEL-2 melanoma): > 100000 nM

SMILES: O=C(/C=C/C12c3ccccc3C(c3ccccc31)C1C(=O)NC(=O)C12)c1ccccc1 (stereo not given)
- GI50 (U251 CNS): 1550 nM
- TGI (U251 CNS): 2960 nM
- GI50 (A498 renal): 1420 nM
- TGI (A498 renal): 2820 nM
- GI50 (SNB-19 CNS): 1660 nM
- TGI (SNB-19 CNS): 3340 nM
- GI50 (OVCAR-3 ovarian): 1650 nM
- TGI (OVCAR-3 ovarian): 3370 nM
- GI50 (EKVX NSCLC): 1750 nM
- TGI (EKVX NSCLC): 4390 nM
- GI50 (TK-10 renal): 2790 nM
- TGI (TK-10 renal): 6340 nM
- GI50 (A549 NSCLC): 2650 nM
- TGI (A549 NSCLC): 11800 nM
- GI50 (HS 578T breast): 2190 nM
- TGI (HS 578T breast): 7680 nM
- GI50 (CAKI-1 renal): 1490 nM
- TGI (CAKI-1 renal): 3680 nM
- GI50 (UO-31 renal): 1530 nM
- TGI (UO-31 renal): 2880 nM
- GI50 (LOX IMVI melanoma): 1630 nM
- TGI (LOX IMVI melanoma): 3120 nM
- GI50 (OVCAR-4 ovarian): 2300 nM
- TGI (OVCAR-4 ovarian): 12100 nM
- GI50 (ACHN renal): 1750 nM
- TGI (ACHN renal): 3590 nM
- GI50 (PC-3 prostate): 1620 nM
- TGI (PC-3 prostate): 3450 nM
- GI50 (MALME-3M melanoma): 1640 nM
- TGI (MALME-3M melanoma): 3150 nM
- GI50 (UACC-257 melanoma): 1610 nM
- TGI (UACC-257 melanoma): 3480 nM
- GI50 (COLO 205 colon): 2050 nM
- TGI (COLO 205 colon): 4030 nM
- GI50 (SF-539 CNS): 1630 nM
- TGI (SF-539 CNS): 3020 nM
- GI50 (MOLT-4 leukemia): 2170 nM
- TGI (MOLT-4 leukemia): 11600 nM
- GI50 (MDA-MB-231 breast): 2960 nM
- TGI (MDA-MB-231 breast): 13100 nM
- GI50 (IGROV1 ovarian): 2030 nM
- TGI (IGROV1 ovarian): 4520 nM
- GI50 (786-0 renal): 1700 nM
- TGI (786-0 renal): 3100 nM
- GI50 (SK-MEL-5 melanoma): 1720 nM
- TGI (SK-MEL-5 melanoma): 3100 nM
- GI50 (HCT-15 colon): 1640 nM
- TGI (HCT-15 colon): 6840 nM
- GI50 (MCF7 breast): 1450 nM
- TGI (MCF7 breast): 7600 nM
- GI50 (CCRF-CEM leukemia): 2170 nM
- TGI (CCRF-CEM leukemia): 12500 nM
- GI50 (NCI-H23 lung): 1790 nM
- TGI (NCI-H23 lung): 4010 nM
- GI50 (K-562 leukemia): 1940 nM
- TGI (K-562 leukemia): > 100000 nM
- GI50 (SK-OV-3 ovarian): 2370 nM
- TGI (SK-OV-3 ovarian): 5200 nM
- GI50 (OVCAR-5 ovarian): 2010 nM
- TGI (OVCAR-5 ovarian): 4830 nM
- GI50 (NCI-H226 lung): 2280 nM
- TGI (NCI-H226 lung): 6510 nM
- GI50 (SN12C renal): 2290 nM
- TGI (SN12C renal): 6910 nM
- GI50 (HT29 colon): 3250 nM
- TGI (HT29 colon): 11900 nM
- GI50 (HOP-92 NSCLC): 1410 nM
- TGI (HOP-92 NSCLC): 3520 nM
- GI50 (NCI/ADR-RES ovarian): 1920 nM
- TGI (NCI/ADR-RES ovarian): 5730 nM
- GI50 (HL-60(TB) leukemia): 1500 nM
- TGI (HL-60(TB) leukemia): 5970 nM
- GI50 (SR leukemia): 1570 nM
- TGI (SR leukemia): 17600 nM
- GI50 (BT-549 breast): 1400 nM
- TGI (BT-549 breast): 2840 nM
- GI50 (HCC-2998 colon): 1700 nM
- TGI (HCC-2998 colon): 3270 nM
- GI50 (RXF 393 renal): 1500 nM
- TGI (RXF 393 renal): 2940 nM
- GI50 (HCT-116 colon): 1350 nM
- TGI (HCT-116 colon): 2890 nM
- GI50 (M14 melanoma): 1780 nM
- TGI (M14 melanoma): 3680 nM
- GI50 (SK-MEL-28 melanoma): 1880 nM
- TGI (SK-MEL-28 melanoma): 3630 nM
- GI50 (SNB-75 CNS): 1200 nM
- TGI (SNB-75 CNS): 2550 nM
- GI50 (SW-620 colon): 1920 nM
- TGI (SW-620 colon): 4930 nM
- GI50 (UACC-62 melanoma): 1770 nM
- TGI (UACC-62 melanoma): 3820 nM
- GI50 (DU-145 prostate): 1640 nM
- TGI (DU-145 prostate): 3510 nM
- GI50 (KM12 colon): 2720 nM
- TGI (KM12 colon): 11000 nM
- GI50 (HOP-62 NSCLC): 2170 nM
- TGI (HOP-62 NSCLC): 4380 nM
- GI50 (NCI-H522 lung): 1800 nM
- TGI (NCI-H522 lung): 3690 nM
- GI50 (RPMI-8226 leukemia): 1510 nM
- TGI (RPMI-8226 leukemia): 4100 nM
- GI50 (NCI-H460 lung): 1680 nM
- TGI (NCI-H460 lung): 4650 nM
- GI50 (SF-268 CNS): 2170 nM
- TGI (SF-268 CNS): 6550 nM
- GI50 (MDA-MB-435): 2160 nM
- TGI (MDA-MB-435): 5900 nM
- GI50 (OVCAR-8 ovarian): 1720 nM
- TGI (OVCAR-8 ovarian): 5100 nM
- GI50 (SK-MEL-2 melanoma): 2350 nM
- TGI (SK-MEL-2 melanoma): 4620 nM
